How the values were obtained:
[1] = target: T1, α3β3γε complex of BF1 (F1-ATPase from Bacillus subtilis) (Bacillus subtilis, UniProt P37808+P37809); assay: residual initial ATPase activity ([…]-4 s) after preincubation with MgADP; type: biochemical; settings: read-out: % inhibition at 1:1 MgADP (5 μM)
T1 construct: gene atpD; recombinant α3β3γ (His6-tag at N-terminus of β, kept) reconstituted with excess separately purified BF1 ε subunit; no δ; E. coli expression; with ATP synthase gamma chain; ATP synthase epsilon chain
T1 sequence (P37812 whole entry): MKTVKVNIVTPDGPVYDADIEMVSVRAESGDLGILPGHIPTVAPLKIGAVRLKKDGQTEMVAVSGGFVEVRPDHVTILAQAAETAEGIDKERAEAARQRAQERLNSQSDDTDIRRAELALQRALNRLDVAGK
T1 sequence (P37809 whole entry): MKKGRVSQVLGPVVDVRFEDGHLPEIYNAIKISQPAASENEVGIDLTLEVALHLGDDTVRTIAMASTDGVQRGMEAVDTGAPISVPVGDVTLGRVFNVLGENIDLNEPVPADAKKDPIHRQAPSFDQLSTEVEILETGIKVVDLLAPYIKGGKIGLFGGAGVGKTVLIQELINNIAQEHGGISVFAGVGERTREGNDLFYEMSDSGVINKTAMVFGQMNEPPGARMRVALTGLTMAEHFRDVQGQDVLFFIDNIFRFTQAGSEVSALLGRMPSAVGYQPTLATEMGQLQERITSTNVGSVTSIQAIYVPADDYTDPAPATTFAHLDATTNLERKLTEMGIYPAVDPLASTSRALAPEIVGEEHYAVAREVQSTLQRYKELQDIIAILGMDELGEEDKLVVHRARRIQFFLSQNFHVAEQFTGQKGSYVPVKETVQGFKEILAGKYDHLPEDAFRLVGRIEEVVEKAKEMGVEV
T1 sequence (P37808 2-502): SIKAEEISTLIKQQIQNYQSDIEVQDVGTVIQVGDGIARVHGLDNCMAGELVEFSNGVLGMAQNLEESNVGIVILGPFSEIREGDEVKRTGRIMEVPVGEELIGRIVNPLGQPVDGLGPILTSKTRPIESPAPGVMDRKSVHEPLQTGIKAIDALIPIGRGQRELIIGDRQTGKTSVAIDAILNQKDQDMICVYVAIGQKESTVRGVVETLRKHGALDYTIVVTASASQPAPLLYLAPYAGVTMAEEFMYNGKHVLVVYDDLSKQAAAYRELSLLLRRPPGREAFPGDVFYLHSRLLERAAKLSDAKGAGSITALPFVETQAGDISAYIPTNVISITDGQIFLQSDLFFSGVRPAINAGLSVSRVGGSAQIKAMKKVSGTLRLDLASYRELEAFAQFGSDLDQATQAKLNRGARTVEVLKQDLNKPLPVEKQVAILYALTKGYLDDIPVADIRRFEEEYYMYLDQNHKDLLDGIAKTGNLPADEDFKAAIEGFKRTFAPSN
T1 sequence (P37810 whole entry, further chain): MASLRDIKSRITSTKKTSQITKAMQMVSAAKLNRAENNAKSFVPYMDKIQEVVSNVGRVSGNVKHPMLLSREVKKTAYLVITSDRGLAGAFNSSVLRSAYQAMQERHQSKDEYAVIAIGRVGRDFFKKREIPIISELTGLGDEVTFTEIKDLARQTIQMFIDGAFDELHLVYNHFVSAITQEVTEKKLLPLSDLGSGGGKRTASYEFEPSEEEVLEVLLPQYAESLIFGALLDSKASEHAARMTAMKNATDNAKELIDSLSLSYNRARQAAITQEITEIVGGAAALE

[2] = target: T2, α3β3γ complex of BF1 (F1-ATPase from Bacillus subtilis) (Bacillus subtilis, UniProt P37808+P37809); assay: as above; type: biochemical; settings: read-out: % inhibition at 1:1 MgADP (5 μM)
T2 construct: gene atpD; recombinant α3β3γ subcomplex without δ and ε; His6-tag at N-terminus of β (kept); initiation codons of α and γ changed to ATG; expressed in E. coli BL21(DE3) from pET21-BF1; nucleotide-free; with ATP synthase gamma chain
T2 sequence (P37809 whole entry): as the sequence (P37809 whole entry) above
T2 sequence (P37808 2-502): as the sequence (P37808 2-502) above
T2 sequence (P37810 whole entry, further chain): as the sequence (P37810 whole entry, further chain) above

- inhibition at 5 µM [1]: ~20%
- inhibition at 5 µM [2]: ~50%
SMILES: Nc1ncnc2c1ncn2[C@@H]1O[C@H](COP(=O)(O)OP(=O)(O)O)[C@@H](O)[C@H]1O [MgADP]

Reference: paper PMC3742539, “ε Subunit of Bacillus subtilis F1-ATPase Relieves MgADP Inhibition” (PLoS ONE, 2013)
